From US11180459B2, “Bacterial efflux pump inhibitors” (RUTGERS, THE STATE UNIVERSITY OF NEW JERSEY, priority 2017, dated 2021)
Structures can show the parent of a compound that is named as a salt. Where two headings read alike, the source gives them in different places.

Key:
Format in all cases: cell-based
[1] = system: Escherichia coli ATCC 25922; experiment: Standard EPI assay: clarithromycin MIC with EPI; conditions: clarithromycin as antibiotic, E. coli ATCC 25922
Method: (§1) MIC assays were conducted in accordance with Clinical and Laboratory Standards Institute (CLSI) guidelines for broth microdilution.
(§2) The EPI assay for the purposes of these studies represents a MIC assay in which the MIC of the antibiotic against the bacteria is tested in the presence of an experimental efflux pump inhibitor (EPI). The highest concentration of the EPI present in the assay typically is ½ of the intrinsic MIC of the compound. If the intrinsic MIC of the EPI is greater than 100 μg/mL, the EPI assay was tested with 50 μg/mL. Using serial dilutions of the EPI, its enhancement of antibiotic activity was then evaluated. The relative EPI activity was decided by comparing the MIC of the antibiotic in the presence of the EPI compound with the intrinsic MIC of the antibiotic alone. For the evaluation of the efficacy of an EPI against bacteria that were pre-exposed to an antibiotic, the inoculum of bacteria that used was developed from a bacterial culture isolated as a single colony following exposure at ½ the MIIC of the antibiotic (so as to induce efflux pump expression), was to be used in combination with the EPI.
(§3) In our standard EPI assay, the MIC of the test antibiotic is determined in the absence and presence of sub-inhibitory concentrations of the EPI. Initially, the sub-inhibitory concentration used was ½×MIC of the EPI. […] The MIC of levofloxacin against P. aeruginosa ATCC 27853 in the absence of EPI is 1 μg/mL. […] Similar methodology was employed to examine the synergy with Escherichia coli ATCC 25922 in the presence of varied concentrations of these EPIs using clarithromycin as the antibiotic.

[2] = system: Pseudomonas aeruginosa ATCC 27853; experiment: Standard EPI assay: levofloxacin MIC with EPI; conditions: P. aeruginosa ATCC 27853; for Enhanced Activity in P. aeruginosa (fold enhancement of antibiotic activity / EPI concentration): levofloxacin as antibiotic
Method: as §1, §2, §3

[3] = system: P. aeruginosa ATCC 27853; experiment: Intrinsic MIC assay (broth microdilution); conditions: Pseudomonas aeruginosa
Method: as §1
The intrinsic MIC of the experimental EPIs was tested with the method described. The 2-fold serial dilution begins with 100 μg/mL of tested compound in the first column of the 96-well plates.

Row | SMILES | Enhanced Activity in E. coli (fold enhancement of antibiotic activity / EPI concentration) ([1]; EPI at 50 (μg)) | Enhanced Activity in P. aeruginosa (fold enhancement of antibiotic activity / EPI concentration) ([2]; EPI at 12.5 (μg)) [×/12.5] | other results
1 | CC(C)C(N)CC[C@H](N)CNC(=O)c1nc2cc(-c3ccc(F)cc3)ccc2[nH]1 (stereo partly drawn) [Example 16, N-((2S)-2,5-diamino-6-methylheptyl)-5-(4-fluorophenyl)-1H-benzo[d]imidazole-2-carboxamide Dihydrochloride] |  |  | Enhanced Activity in E. coli (fold enhancement of antibiotic activity / EPI concentration) ([1]; EPI at 6.25 (μg)): 4×/6.25
2 | Cn1c(C(=O)NC[C@@H](N)CCCN)nc2cc(-c3ccc(F)cc3)ccc21 [Example 5, (S)—N-(2,5-diaminopentyl)-5-(4-fluorophenyl)-1-methyl-1H-benzo[d]imidazole-2-carboxamide Dihydrochloride] | 64×/50 |  | 
3 | COc1ccc(-c2ccc3nc(C(=O)NC[C@@H](N)CCN)[nH]c3c2)cc1.Cl.Cl [Example 15, (S)-4-(5-(4-methoxyphenyl)-1H-benzo[d]imidazole-2-carboxamido)butane-1,3-diaminium Dihydrochloride] | 2×/50 | 2 | 
4 | NCCC[C@H](N)CNC(=O)c1nc2cc(Br)ccc2[nH]1 [Example 23, (S)-5-bromo-N-(2,5-diaminopentyl)-1H-benzo[d]imidazole-2-carboxamide Hydrogen Chloride Salt] | 2×/50 μg |  | 
5 | NCCC[C@@H](N)CNC(=O)c1nc2cc(-c3ccc(F)cc3)ccc2[nH]1 [Example 18, (R)—N-(2,5-diaminopentyl)-5-(4-fluorophenyl)-1H-benzo[d]imidazole-2-carboxamide Dihydrochloride] |  |  | Enhanced Activity in E. coli (fold enhancement of antibiotic activity / EPI concentration) ([1]; EPI at 6.25 (μg)): 2×/6.25
6 | NCCC[C@H](N)CNC(=O)c1nc2cc(-c3ccc(F)cc3)cc(-c3ccc(F)cc3)c2[nH]1 [Example 2, (S)—N-(2,5-diaminopentyl)-5,7-bis(4-fluorophenyl)-1H-benzo[d]imidazole-2-carboxamide Dihydrochloride] |  | 1 | 
7 | Cl.Cl.N=C(N)NCCC[C@H](N)CNC(=O)c1nc2cc(-c3ccc(F)cc3)ccc2[nH]1 [Example 14, (S)-5-((amino(iminio)methyl)amino)-1-(5-(4-fluorophenyl)-1H-benzo[d]imidazole-2-carboxamido) pentan-2-aminium Chloride] | 2×/50 | 4 | 
8 | Cl.Cl.NC[C@H](N)CNC(=O)c1nc2ccc(-c3ccc(F)cc3)cc2[nH]1 [Example 13, (S)-3-(5-(4-fluorophenyl)-1H-benzo[d]imidazole-2-carboxamido) propane-1,2-diaminium Dihydrochloride] |  |  | Enhanced Activity in P. aeruginosa (fold enhancement of antibiotic activity / EPI concentration) ([2]; EPI at 25 (μg)): 4×/25
9 | Cl.Cl.NCCC[C@H](N)CNC(=O)c1nc2cc(-c3ccc(F)cc3)c(-c3ccc(F)cc3)cc2n1Cc1ccccc1 [Example 31, (S)-1-benzyl-N-(2,5-diaminopentyl)-5,6-bis(4-fluorophenyl)-1H-benzo[d]imidazole-2-carboxamide Hydrogen Chloride Salt] |  |  | Enhanced Activity in E. coli (fold enhancement of antibiotic activity / EPI concentration) ([1]; EPI at 6.25 (μg)): 8×/6.25 μg
10 | NCCC[C@H](N)CNC(=O)c1nc2cc(-c3ccc(F)cc3)c(-c3ccc(F)cc3)cc2[nH]1 [Example 1, (S)—N-(2,5-diaminopentyl)-5,6-bis(4-fluorophenyl)-1H-benzo[d]imidazole-2-carboxamide Dihydrochloride] |  |  | Enhanced Activity in E. coli (fold enhancement of antibiotic activity / EPI concentration) ([1]; EPI at 6.25 (μg)): 512×/6.25
11 | Cl.Cl.NCCC[C@H](N)CNC(=O)c1nc2ccc(-c3ccc(N)cc3)cc2[nH]1 [Example 25, (S)-6-(4-aminophenyl)-N-(2,5-diaminopentyl)-1H-benzo[d]imidazole-2-carboxamide Hydrogen Chloride Salt] | 2×/50 μg |  | 
12 | NCCC[C@H](N)CNC(=O)c1nc2cc(-c3ccc(F)cc3)cc(C(F)(F)F)c2[nH]1 [Example 3, (S)—N-(2,5-diaminopentyl)-5-(4-fluorophenyl)-7-(trifluoromethyl)-1H-benzo[d]imidazole-2-carboxamide Dihydrochloride] |  | 64 | Enhanced Activity in E. coli (fold enhancement of antibiotic activity / EPI concentration) ([1]; EPI at 6.25 (μg)): 8×/6.25; MIC of levofloxacin in the presence of EPI ([2]; 6.25 μg/mL of Example 3): 0.016 µg/mL; reduction of the MIC of levofloxacin relative to absence of EPI ([2]; 6.25 μg/mL of Example 3): 64 fold; MIC ([3]; ATCC27853, read-out: intrinsic MIC of the EPI): 25 µg/mL
13 | NCCC[C@H](N)c1nc2cc(-c3ccc(F)cc3)ccc2[nH]1 [Example 9, (S)-1-(5-(4-fluorophenyl)-1H-benzo[d]imidazol-2-yl)butane-1,4-diamine Dihydrochloride] | 256×/50 |  | Enhanced Activity in P. aeruginosa (fold enhancement of antibiotic activity / EPI concentration) ([2]; EPI at 25 (μg)): 1×/25
14 | NC[C@@H]1CN[C@H](CNC(=O)c2nc3cc(-c4ccc(F)cc4)ccc3[nH]2)C1 [Example 21, N-(((2S,4R)-4-(aminomethyl)pyrrolidin-2-yl)methyl)-5-(4-fluorophenyl)-1H-benzo[d]imidazole-2-carboxamide Dihydrochloride] | 256×/50 |  | Enhanced Activity in P. aeruginosa (fold enhancement of antibiotic activity / EPI concentration) ([2]; EPI at 25 (μg)): 8×/25
15 | CC(C)(N)C1CN[C@H](CNC(=O)c2nc3ccc(-c4ccc(F)cc4)cc3[nH]2)C1 (stereo partly drawn) [Example 11, N-(((2S)-4-(2-aminopropan-2-yl)pyrrolidin-2-yl)methyl)-6-(4-fluorophenyl)-1H-benzo[d]imidazole-2-carboxamide Dihydrochloride] |  | 2 | 
16 | C[C@H]1COc2c(N3CCN(C)CC3)c(F)cc3c(=O)c(C(=O)O)cn1c23 [levofloxacin, reference compound] |  |  | MIC ([3]; ATCC27853, P. aeruginosa ATCC 27853, read-out: MIC of levofloxacin in the absence of EPI): 1 µg/mL
17 | Cl.Cl.NCCC(N)CNC(=O)c1nc2cc(-c3ccc(F)cc3)ccc2[nH]1 (stereo in doubt) [Example 12, (S)-4-(5-(4-fluorophenyl)-1H-benzo[d]imidazole-2-carboxamido) butane-1,3-diaminium Chloride] | 8×/50 | 4 | 
18 | NCCC[C@H](N)CNC(=O)c1nc2cc(-c3ccc(F)cc3)ccc2[nH]1 [Example 17, (S)—N-(2,5-diaminopentyl)-5-(4-fluorophenyl)-1H-benzo[d]imidazole-2-carboxamide Dihydrochloride] | 256×/50 |  | 
19 | N#Cc1cccc(-c2ccc3[nH]c(C(=O)NC[C@@H](N)CCCN)nc3c2)c1 [Example 7, (S)-5-(3-cyanophenyl)-N-(2,5-diaminopentyl)-1H-benzo[d]imidazole-2-carboxamide Dihydrochloride] |  | 4 | 
20 | NCCC[C@H](N)CNC(=O)Cc1nc2ccc(-c3ccc(F)cc3)cc2[nH]1 [Example 10, (S)—N-(2,5-diaminopentyl)-2-(6-(4-fluorophenyl)-1H-benzo[d]imidazol-2-yl)acetamide Dihydrochloride] | 1×/50 |  | 
21 | Cn1c(C(=O)NC[C@@H](N)CCCN)nc2cc(-c3ccc(F)cc3)cc(C(F)(F)F)c21 [Example 4, (S)—N-(2,5-diaminopentyl)-5-(4-fluorophenyl)-1-methyl-7-(trifluoromethyl)-1H-benzo[d]imidazole-2-carboxamide Dihydrochloride] | 512×/50 | 8 | 
22 | COc1ccc(-c2ccc3[nH]c(C(=O)NC[C@@H](N)CCCN)nc3c2)cc1 [Example 8, (S)—N-(2,5-diaminopentyl)-5-(4-methoxyphenyl)-1H-benzo[d]imidazole-2-carboxamide Dihydrochloride] | 2×/50 | 2 | 
23 | Cl.Cl.Cn1c(C(=O)NC[C@@H](N)CCCN)nc2cc(-c3ccc(F)cc3)c(-c3ccc(F)cc3)cc21 [Example 30, (S)—N-(2,5-diaminopentyl)-5,6-bis(4-fluorophenyl)-1-methyl-1H-benzo[d]imidazole-2-carboxamidehydrogen Chloride Salt] |  |  | Enhanced Activity in E. coli (fold enhancement of antibiotic activity / EPI concentration) ([1]; EPI at 6.25 (μg)): 512×/6.25 μg
